Measurements reported in patent publication US8669251B2, “8-fluorophthalazin-1(2H)-one compounds” (Genentech, Inc., priority 2011, dated 2014).

Tested on: production of CD69 by B lymphocytes in human whole blood
Assay: CD69 Whole Blood Assay (CD69 Hu Blood FACS)
Type: cell-based
Settings: human whole blood activated with goat F(ab')2 anti-human IgM, 20 hours; CD69 on CD20 positive cells by FACS; Table 2
From the text: A CD69 Whole Blood Assay can be conducted on Formula I compounds to determine the ability of compounds to inhibit the production of CD69 by B lymphocytes in human whole blood activated by crosslinking surface IgM with goat F(ab′)2 anti-human IgM (Example 907). CD69 is a type II C-type lectin involved in lymphocyte migration and cytokine secretion. CD69 expression represents one of the earliest available indicators of leukocyte activation and its rapid induction occurs through transcriptional activation (Vazquez et al (2009) Jour. of Immunology Published Oct. 19, 2009, doi:10.4049/jimmunol.0900839). Concentration-dependent inhibition of antigen receptor stimulation by selective Btk inhibitors induces cell surface expression of the lymphocyte activation marker CD69 (Honigberg et al (2010) Proc. Natl. Acad. Sci. 107(29):13075-13080). Thus, CD69 inhibition by selective Btk inhibitors may be correlated with therapeutic efficacy of certain B-cell disorders.
Human blood is obtained from healthy volunteers, with the following restrictions: 1 week drug-free, non-smokers. Blood (approximately 20 mls to test 8 compounds) is collected by venipuncture into Vacutainer® (Becton, Dickinson and Co.) tubes with sodium heparin.
Solutions of Formula I and II compounds at 10 mM in DMSO are diluted 1:10 in 100% DMSO, then are diluted by three-fold serial dilutions in 100% DMSO for a ten point dose-response curve. The compounds are further diluted 1:10 in PBS and then an aliquot of 5.5 μl of each compound is added in duplicate to a 2 ml 96-well plate; 5.5 μl of 10% DMSO in PBS is added as control and no-stimulus wells. Human whole blood —HWB (100 μl) is added to each well. After mixing the plates are incubated at 37° C., 5% CO2, 100% humidity for 30 minutes. Goat F(ab′)2 anti-human IgM (10 μl of a 500 μg/ml solution, 50 μg/ml final) is added to each well (except the no-stimulus wells) with mixing and the plates are incubated for an additional 20 hours. At the end of the 20 hour incubation, samples are incubated with fluorescent labeled antibodies for 30 minutes, at 37° C., 5% CO2, 100% humidity. Include induced control, unstained and single stains for compensation adjustments and initial voltage settings. Samples are then lysed with PharM Lyse™ (BD Biosciences Pharmingen) according to the manufacturer's instructions. Samples are then transferred to a 96 well plate suitable to be run on the BD Biosciences HTS 96 well system on the LSRII machine. Data acquired and Mean Fluorescence Intensity values were obtained using BD Biosciences DIVA Software. Results are initially analyzed by FACS analysis software (Flow Jo). […] The inhibitory concentration (IC50, IC70, IC90) values are calculated by Prism version 5, using a nonlinear regression curve fit.

| SMILES | CD69 Hu Blood FACS (IC70) [µM] |
| --- | --- |
| C[C@@H]1COCCN1C(=O)c1ccc(Nc2cc(-c3ccnc(-n4ncc5cc(C(C)(C)C)cc(F)c5c4=O)c3CO)cn(C)c2=O)nc1 [Compound 132, 6-tert-butyl-8-fluoro-2-[3-(hydroxymethyl)-4-[1-methyl-5-[[5-[(3R)-3-methylmorpholine-4-carbonyl]-2-pyridyl]amino]-6-oxo-3-pyridyl]-2-pyridyl]phthalazin-1-one] | 0.014 |
| COCCN1CCn2nc(Nc3cc(-c4ccnc(-n5ncc6cc(C(C)(C)C)cc(F)c6c5=O)c4CO)cn(C)c3=O)cc2C1 [Compound 133, 6-tert-butyl-8-fluoro-2-[3-(hydroxymethyl)-4-[5-[[5-(2-methoxyethyl)-6,7-dihydro-4H-pyrazolo[1,5-a]pyrazin-2-yl]amino]-1-methyl-6-oxo-3-pyridyl]-2-pyridyl]phthalazin-1-one] | 0.0145 |
| Cn1cc(-c2ccnc(-n3ncc4cc(C(C)(C)C)cc(F)c4c3=O)c2CO)cc(Nc2cc3n(n2)CCN(CC(F)(F)F)C3)c1=O [Compound 134, 6-tert-butyl-8-fluoro-2-[3-(hydroxymethyl)-4-[1-methyl-6-oxo-5-[[5-(2,2,2-trifluoroethyl)-6,7-dihydro-4H-pyrazolo[1,5-a]pyrazin-2-yl]amino]-3-pyridyl]-2-pyridyl]phthalazin-1-one] | 0.0216 |
| Cn1cc(-c2ccnc(-n3ncc4cc(C(C)(C)C)cc(F)c4c3=O)c2CO)cc(Nc2cc3n(n2)CCN(CC(F)F)C3)c1=O [Compound 135, 6-tert-butyl-2-[4-[5-[[5-(2,2-difluoroethyl)-6,7-dihydro-4H-pyrazolo[1,5-a]pyrazin-2-yl]amino]-1-methyl-6-oxo-3-pyridyl]-3-(hydroxymethyl)-2-pyridyl]-8-fluoro-phthalazin-1-one] | 0.02 |
| C[C@H]1COCCN1C(=O)c1ccc(Nc2cc(-c3ccnc(-n4ncc5cc(C(C)(C)C)cc(F)c5c4=O)c3CO)cn(C)c2=O)nc1 [Compound 136, 6-tert-butyl-8-fluoro-2-[3-(hydroxymethyl)-4-[1-methyl-5-[[5-[(3S)-3-methylmorpholine-4-carbonyl]-2-pyridyl]amino]-6-oxo-3-pyridyl]-2-pyridyl]phthalazin-1-one] | 0.0145 |
| C[C@H]1CN(C2COC2)CCN1c1ccc(Nc2cc(-c3ccnc(-n4ncc5cc(C(C)(C)C)cc(F)c5c4=O)c3CO)c[nH]c2=O)nc1 [Compound 138, 6-tert-butyl-8-fluoro-2-[3-(hydroxymethyl)-4-[5-[[5-[(2S)-2-methyl-4-(oxetan-3-yl)piperazin-1-yl]-2-pyridyl]amino]-6-oxo-1H-pyridin-3-yl]-2-pyridyl]phthalazin-1-one] | 0.0124 |
| Cn1cc(-c2ccnc(-n3ncc4cc(C(C)(C)C)cc(F)c4c3=O)c2CO)cc(Nc2cc3n(n2)CC(C)(C)OC3)c1=O [Compound 139, 6-tert-butyl-2-[4-[5-[(6,6-dimethyl-4,7-dihydropyrazolo[5,1-c][1,4]oxazin-2-yl)amino]-1-methyl-6-oxo-3-pyridyl]-3-(hydroxymethyl)-2-pyridyl]-8-fluoro-phthalazin-1-one] | 0.0616 |
| Cn1ccc(Nc2cc(-c3ccnc(-n4ncc5cc(C(C)(C)C)cc(F)c5c4=O)c3CO)cn(C)c2=O)n1 [Compound 140, 6-tert-butyl-8-fluoro-2-[3-(hydroxymethyl)-4-[1-methyl-5-[(1-methylpyrazol-3-yl)amino]-6-oxo-3-pyridyl]-2-pyridyl]phthalazin-1-one] | 0.068 |
| Cc1cc(Nc2cc(-c3ccnc(-n4ncc5cc(C(C)(C)C)cc(F)c5c4=O)c3CO)nn(C)c2=O)no1 [Compound 141, 6-tert-butyl-8-fluoro-2-[3-(hydroxymethyl)-4-[1-methyl-5-[(5-methylisoxazol-3-yl)amino]-6-oxo-pyridazin-3-yl]-2-pyridyl]phthalazin-1-one] | 0.295 |
| CCn1ccc(Nc2cc(-c3ccnc(-n4ncc5cc(C(C)(C)C)cc(F)c5c4=O)c3CO)cn(C)c2=O)n1 [Compound 142, 6-tert-butyl-2-[4-[5-[(1-ethylpyrazol-3-yl)amino]-1-methyl-6-oxo-3-pyridyl]-3-(hydroxymethyl)-2-pyridyl]-8-fluoro-phthalazin-1-one] | 0.168 |
| COCc1cc(Nc2cc(-c3ccnc(-n4ncc5cc(C(C)(C)C)cc(F)c5c4=O)c3CO)cn(C)c2=O)nn1C [Compound 143, 6-tert-butyl-8-fluoro-2-[3-(hydroxymethyl)-4-[5-[[5-(methoxymethyl)-1-methyl-pyrazol-3-yl]amino]-1-methyl-6-oxo-3-pyridyl]-2-pyridyl]phthalazin-1-one] | 0.0131 |
| Cn1nc(Nc2cc(-c3ccnc(-n4ncc5cc(C(C)(C)C)cc(F)c5c4=O)c3CO)cn(C)c2=O)cc1C(=O)N1CCCC1 [Compound 144, 6-tert-butyl-8-fluoro-2-[3-(hydroxymethyl)-4-[1-methyl-5-[[1-methyl-5-(pyrrolidine-1-carbonyl)pyrazol-3-yl]amino]-6-oxo-3-pyridyl]-2-pyridyl]phthalazin-1-one] | 0.0203 |
| Cc1cc(Nc2cc(-c3ccnc(-n4ncc5cc(C(C)(C)C)cc(F)c5c4=O)c3CO)cn(C)c2=O)nn1CC(F)F [Compound 145, 6-tert-butyl-2-[4-[5-[[1-(2,2-difluoroethyl)-5-methyl-pyrazol-3-yl]amino]-1-methyl-6-oxo-3-pyridyl]-3-(hydroxymethyl)-2-pyridyl]-8-fluoro-phthalazin-1-one] | 0.163 |
| CN1Cc2cc(Nc3cc(-c4ccnc(-n5ncc6cc(C(C)(C)C)cc(F)c6c5=O)c4CO)cn(C)c3=O)nn2CC1=O [Compound 146, 6-tert-butyl-8-fluoro-2-[3-(hydroxymethyl)-4-[1-methyl-5-[(5-methyl-6-oxo-4,7-dihydropyrazolo[1,5-a]pyrazin-2-yl)amino]-6-oxo-3-pyridyl]-2-pyridyl]phthalazin-1-one] | 0.0209 |
| Cn1cc(-c2ccnc(-n3ncc4cc(C(C)(C)C)cc(F)c4c3=O)c2CO)cc(Nc2ccc(N3CC(O)C3)cn2)c1=O [Compound 147, 6-tert-butyl-8-fluoro-2-[4-[5-[[5-(3-hydroxyazetidin-1-yl)-2-pyridyl]amino]-1-methyl-6-oxo-3-pyridyl]-3-(hydroxymethyl)-2-pyridyl]phthalazin-1-one] | 0.0333 |
| CC(C)C(=O)N1CCn2nc(Nc3cc(-c4ccnc(-n5ncc6cc(C(C)(C)C)cc(F)c6c5=O)c4CO)cn(C)c3=O)cc2C1 [Compound 148, 6-tert-butyl-8-fluoro-2-[3-(hydroxymethyl)-4-[1-methyl-5-[[5-(2-methylpropanoyl)-6,7-dihydro-4H-pyrazolo[1,5-a]pyrazin-2-yl]amino]-6-oxo-3-pyridyl]-2-pyridyl]phthalazin-1-one] | 0.0139 |
| Cn1cc(Nc2cc(-c3ccnc(-n4ncc5cc(C(C)(C)C)cc(F)c5c4=O)c3CO)cn(C)c2=O)nn1 [Compound 149, 6-tert-butyl-8-fluoro-2-[3-(hydroxymethyl)-4-[1-methyl-5-[(1-methyltriazol-4-yl)amino]-6-oxo-3-pyridyl]-2-pyridyl]phthalazin-1-one] | 0.093 |
| CC1OCCn2nc(Nc3cc(-c4ccnc(-n5ncc6cc(C(C)(C)C)cc(F)c6c5=O)c4CO)cn(C)c3=O)cc21 (centres unmarked) [Compound 150, 6-tert-butyl-8-fluoro-2-[3-(hydroxymethyl)-4-[1-methyl-5-[(4-methyl-6,7-dihydro-4H-pyrazolo[5,1-c][1,4]oxazin-2-yl)amino]-6-oxo-3-pyridyl]-2-pyridyl]phthalazin-1-one] | 0.0428 |
| CC(C)N1Cc2cc(Nc3cc(-c4ccnc(-n5ncc6cc(C(C)(C)C)cc(F)c6c5=O)c4CO)cn(C)c3=O)nn2CC1=O [Compound 151, 6-tert-butyl-8-fluoro-2-[3-(hydroxymethyl)-4-[5-[(5-isopropyl-6-oxo-4,7-dihydropyrazolo[1,5-a]pyrazin-2-yl)amino]-1-methyl-6-oxo-3-pyridyl]-2-pyridyl]phthalazin-1-one] | 0.0141 |
| Cn1cc(-c2ccnc(-n3ncc4cc(C(C)(C)C)cc(F)c4c3=O)c2CO)cc(Nc2cc[nH]n2)c1=O [Compound 152, 6-tert-butyl-8-fluoro-2-[3-(hydroxymethyl)-4-[1-methyl-6-oxo-5-(1H-pyrazol-3-ylamino)-3-pyridyl]-2-pyridyl]phthalazin-1-one] | 0.0459 |
